Test results from patent US9566347B2, “Peptides and methods using same” (The Trustees of the University of Pennsylvania, priority 2011, dated 2017).
One block for each compound: values may come before it. Positions of bridges follow the written chain, without caps; N, C: chain ends. Residues, ends and D or L forms follow the SMILES beside them. No end group written: not given here.

Assays:
hSIRP-alpha = hSIRP-alpha (Homo sapiens, UniProt P78324); assay: Soluble peptide inhibition of hSIRP-alpha binding to polypeptide beads
Excerpt: (§1) Synthesis of the three designs and Scrambled-peptides with or without biotin attached via either an aminohexanoic acid linker (C6) or a PEG linker, enabled functional testing of binding to soluble hSIRP-alpha as well as inhibition of nanobead phagocytosis. […] The 10-aa FG-hairpin was synthesized without attachment of biotin for use as a soluble inhibitor of hSIRP-alpha binding to polypeptide beads. […] While conformational constraints the minimal FG-hairpin combined with the likely lack of a stable structure underscores the utility of at least some backbone flexibility.

THP-1 cells = assay: Phagocytosis assay of peptide-coated opsonized nanobeads in THP-1 cell line; format: cell-based; conditions: opsonized beads
Protocol: FIG. 3A illustrates a two color experiment in which nanoparticles (or cells) are mixed and injected into the same mouse after labeling with or without the peptide with distinct fluorescent red dye (PKH26) or far-red (DiD). 50 μl of blood was periodically sampled from the eyes, and flow cytometry analysis of the decay in nanoparticle (or cell) numbers was used to calculate the time-dependent ‘persistence ratio’ in each mouse. Colors were labeled as 1 and 2. FIG. 3B is a graph illustrating an experiment where 160 nm polystyrene beads coated with streptavidin were bound to biotinylated versions of synthetic FG-peptide, or else negative controls of either scrambled peptide or PEG. Beads were opsonized with anti-streptavidin and then injected. n=6 mice. FIG. 3C is a graph illustrating the inverse correlation between the in vivo ratio of beads with or without peptide at 35 min and the inhibition of phagocytosis in vitro at 45 min for 160 nm beads. FIG. 3D is a graph illustrating macrophage SIRPa1 tyrosine phosphorylation upon contact with FG-peptide bound to opsonized beads and phagocytosed by THP-1 cells. From cell lysates, SIRP-alpha was immunoprecipitated and immunoblotted for quantitation of phosphotyrosine per total SIRP-alpha (n=3). Avg.±SEM for all results.
FIG. 4 illustrates binding and phagocytosis inhibition of peptides in relation to human-SIRP-alpha. […]

soluble hSIRP-alpha = soluble hSIRP-alpha (Homo sapiens, UniProt P78324); assay: Binding of polypeptide-coated beads to soluble hSIRP-alpha by flow cytometry
Excerpt: FIG. 4 illustrates binding and phagocytosis inhibition of peptides in relation to human-SIRP-alpha. Affinity of polypeptides coated beads binding to soluble hSIRP-alpha based on flow cytometry. Saturation binding fit gave the indicated dissociation constant, Kd.
as §1

[1] = Two-color persistence of opsonized nanobeads in circulation of NSG mice; format: in vivo; conditions: 160 nm opsonized streptavidin polystyrene beads
Protocol: FIG. 3A illustrates a two color experiment in which nanoparticles (or cells) are mixed and injected into the same mouse after labeling with or without the peptide with distinct fluorescent red dye (PKH26) or far-red (DiD). 50 μl of blood was periodically sampled from the eyes, and flow cytometry analysis of the decay in nanoparticle (or cell) numbers was used to calculate the time-dependent ‘persistence ratio’ in each mouse. Colors were labeled as 1 and 2. FIG. 3B is a graph illustrating an experiment where 160 nm polystyrene beads coated with streptavidin were bound to biotinylated versions of synthetic FG-peptide, or else negative controls of either scrambled peptide or PEG. Beads were opsonized with anti-streptavidin and then injected. n=6 mice. […] Avg.±SEM for all results.

spleen macrophages = conditions: NSG mice, near-infrared particles
Excerpt: To assess whether the particles had been taken up by spleen macrophages in NSG mice, tissue sections were immunostained for macrophages and imaged by fluorescence microscopy.

soluble hSIRP-alpha, sequence (P78324 31-373 limits assumed): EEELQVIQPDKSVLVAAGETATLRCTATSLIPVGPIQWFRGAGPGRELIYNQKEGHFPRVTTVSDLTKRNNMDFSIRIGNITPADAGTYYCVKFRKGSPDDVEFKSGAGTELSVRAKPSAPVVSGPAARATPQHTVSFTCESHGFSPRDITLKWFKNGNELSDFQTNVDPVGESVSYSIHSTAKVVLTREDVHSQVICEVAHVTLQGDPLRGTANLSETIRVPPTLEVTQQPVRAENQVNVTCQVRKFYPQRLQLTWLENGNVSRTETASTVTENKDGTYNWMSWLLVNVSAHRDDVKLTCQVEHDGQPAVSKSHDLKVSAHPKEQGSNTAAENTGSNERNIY
hSIRP-alpha, sequence (P78324 31-373 limits assumed): as above

Compound: CC(C)C[C@H](NC(=O)[C@H](CCC(=O)O)NC(=O)[C@@H](NC(=O)[C@@H](NC(=O)[C@@H](N)CCC(=O)O)C(C)C)[C@@H](C)O)C(=O)N[C@H](C(=O)N[C@@H](CCCNC(=N)N)C(=O)N[C@@H](CCC(=O)O)C(=O)NCC(=O)N[C@@H](CCC(=O)O)C(=O)O)[C@@H](C)O [FG-hairpin, EVTELTREGE] (H-EVTELTREGE-OH; N-terminus and C-terminus assumed)
- Ki (hSIRP-alpha): 0.1 to 0.2 µM

- affinity / binding to hSIRP-alpha (in words) (soluble hSIRP-alpha; peptide-coated beads, soluble hSIRP-alpha): no significant affinity
Compound: CEVTELTREGEC (disulfide 1-12 (inferred)) [FG-SS-peptide, 12-aa peptide with Cys substitution intended to disulfide-stabilize the β-hairpin]
- inhibition of nanobead phagocytosis (THP-1 cells): no statistically significant inhibition of phagocytosis

Compound: GNYTCEVTELTREGETIIELK [FG-peptide]
- Kd (soluble hSIRP-alpha; saturation binding fit, biotinylated peptide on streptavidin beads, C6 or PEG linker, read-out: affinity for SIRP-alpha (Kd)): 0.11 to 0.16 µM
- circulation of nanoparticles [1]: prolong the circulation of nanoparticles
- particle uptake, whole organ imaging (spleen macrophages): reducing but not eliminating uptake
